Source: patent publication US20240309060A1, “POLYPEPTIDE BAX/NPM INHIBITORS” (TRUSTEES OF BOSTON UNIVERSITY, priority 2023, published 2024)
Square brackets hold non-standard residues; d marks the D form. βAla = NCCC(=O)O

Columns and labels:
[1] = test system: primary murine proximal tubule epithelial cells (PTEC); test: MTT cell survival assay of kidney cells after ischemic stress in vitro induced by metabolic inhibitors; format: cell-based; settings: for Cell survival data (ranking of peptides): normalized to negative control GFP fragment, FIG. 14; for Cytoprotective effects during ischemic stress in vitro: peptides 100 nM, metabolic inhibitors 60 min, recovery 6 hr, vs GFP negative control, FIG. 13
Experimental: FIG. 2 depicts an NPMB1 Alanine Scan. Relative kidney cell survival rate after 70 min ischemic stress in vitro induced by metabolic inhibitors in the presence of NPMB1 (control) vs. 19 different NPMBx polypeptides with single alanine substitutions (2 additional NPMB1 alanine residues were not substituted). Residue numbers (x axis) reflect Bax sequence that binds human NPM1; Survival data are normalized to NPMB1; post-ischemic kidney cell survival is shown in tertiles: (left-most group: 5-40% survival; middle-group: 55-70% and third group: 80-95%); n=3 separate experiments.
Relative kidney cell survival rate after 70 min ischemic stress in vitro induced by transient exposure to metabolic inhibitors in the presence of NPMB polypeptides (Agents 2, 5, 7, 14 that reflect alanine scan polypeptides A173, A187, A179, A176) vs. a non—specific polypeptide (GFP fragment). Survival data normalized to baseline (no stress); *P<0.01vs. baseline; t P<0.05 vs. stress; data represent 3 separate experiments; error bars represent mean+SD.
FIGS. 13A-13B depict the cytoprotective effects of select therapeutic peptides during ischemic stress in vitro. Primary murine proximal tubule epithelial cells (PTEC) were transiently exposed to metabolic inhibitors for 60 min and allowed to recover for 6 hr. to simulate ischemia in vivo; MTT assay estimated cell survival. “Control” (open bars); is a GFP fragment of similar size to the therapeutic peptides was used a negative control; NPMB1 (prototype) serves as a positive control. […] All peptides contained the nuclear localizing sequence (NLS) to enhance peptide delivery to the kidney, a beta linker and both carboxy-and amino terminal modifications to reduce susceptibility to protease digestion; data are mean+standard error; n=3 separate experiments. Figure discloses SEQ ID NOS 139, 134-135, 128, 127, and 138, respectively, in order of appearance.
Structure activity relationships of NPMB1 derivatives were determined through alanine scanning In these studies, 19 polypeptides were produced using methods shown in FIGS. 8-11 and their effect of kidney cell survival after ischemic stress was characterized using the MTT cell survival assay. Based on determination of relative kidney cell survival rate, polypeptides were grouped according to activity as shown in FIG. 2 (orange: 5-40% survival; blue 55-70% survival, or green 80-95% survival).

human NPM1 = human NPM1 (Homo sapiens, UniProt P06748); test: Surface plasmon resonance (SPR) binding of peptides to human NPM1; settings: human NPM1, FIG. 14
Chain of human NPM1 (P06748 whole entry, the tested form may be a part): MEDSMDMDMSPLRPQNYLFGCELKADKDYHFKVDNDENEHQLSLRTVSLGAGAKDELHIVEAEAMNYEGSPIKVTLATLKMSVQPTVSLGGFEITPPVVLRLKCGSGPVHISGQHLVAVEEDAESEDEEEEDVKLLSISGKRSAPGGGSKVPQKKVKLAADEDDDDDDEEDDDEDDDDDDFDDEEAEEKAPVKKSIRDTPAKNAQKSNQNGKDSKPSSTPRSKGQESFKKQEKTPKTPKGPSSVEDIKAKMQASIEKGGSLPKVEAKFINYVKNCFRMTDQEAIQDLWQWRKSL
From the text: FIG. 14 depicts a table of the association rate, dissociation rate and the calculated equilibrium dissociation constant for 10 representative therapeutic peptides as measured by Surface Plasmon Resonance (SPR). Mean rates are derived from at least three different peptide concentrations at levels below saturation with human NPM1. Cell survival data are normalized to the negative control (a GFP fragment of similar size to the therapeutic peptides) and represent the mean of at least 3 separate experiments.
FIG. 15 depicts an on-off rate map. A graph of the off-rate (x-axis) and on-rate (y-axis) of 10 representative peptides from different sets of modified peptides. Diagonal dash-lines represent the equilibrium dissociation constant (KD) estimates the NPM1 binding affinity for each peptide based on the distance to the lines.
The 3D helical wheel projection scan predicted that 5 of 6 peptide residues (except for L185) with intermediate effects on post-ischemic cell survival cluster in a single surface domain (FIGS. 6 and 7). These surface residues are likely regulating the binding affinity Kd) between the therapeutic peptide and NPM1, the human target protein. Since binding affinity (Kd) between the peptide drug and NPMB1 partly predicts its efficacy, a high throughput, quantitative surface plasmon resonance (SPR) assay was developed.
SPR was measured for 10 novel polypeptides with select single or double mutations. Both the measured peptide “on” and “off” rates for binding human NPM1 markedly differed (FIG. 15). […] For most modified peptides, greater protection against ischemic stress positively correlated with a low Kd. […] Overall, SPR data combined with cell survival data adequately informs the selection of therapeutic peptides based on the quantifiable effects of R group modifications on these parameters. The combination of SPR binding affinity and cell survival data in vitro effectively rank orders therapeutic peptides for in vivo testing in animals.

[2] = molecular target: human nucleophosmin (NPM1) (Homo sapiens, UniProt P06748); settings: previously discovered by the applicant's team; cited from earlier work
Chain of human nucleophosmin (NPM1) (Homo sapiens, UniProt P06748) (P06748 whole entry): as the sequence (P06748 whole entry, the tested form may be a part) above

[3] = test system: human nucleophosmin (NPM1); settings: in vivo (Wang 2019); cited from earlier work
[4] = test system: in vivo mouse model of ischemic AKI; settings: J Am Soc Nephrol 30: 50-62, 2019; cited from earlier work
[5] = test system: primary murine proximal tubule epithelial cells (PTEC); settings: J Am Soc Nephrol 30: 50-62, 2019; cited from earlier work

Row | Substance | Cell survival data (ranking of peptides) [1] | Cytoprotective effects during ischemic stress in vitro [1] | Kd / NPM1 binding affinity in words (human NPM1) | Binding to human nucleophosmin (NPM1) [2] | NPM/Bax protein interaction [3] | Kidney cell death in an in vivo mouse model of ischemic AKI [4] | Kidney cell death in a cell-based assay [5] | Degree of cytoprotection during ischemic stress ([1]; alanine scan and pro-helical mutations)
1 | Ac-PKKKRKV-Bala-TATIAVAGVLTASLTIWKKMG-OMe [NPMB1-X-012] | most effective | most robust protection | relatively low Kd values |  |  |  |  | 
2 | Ac-PKKKRKV-Bala-TATLFVAGVLTASLTIWKKMG-OMe [NPMB1-X-013] | most effective | most robust protection | relatively low Kd values |  |  |  |  | 
3 | Ac-PKKKRKV-Bala-TVTIFVAGVLTASLTIWKKMG-OH [NPMB1, prototype peptide, positive control] |  |  |  | binds | competitively inhibits | inhibits kidney cell death | inhibits kidney cell death | 
4 | Ac-PKKKRKV-Bala-TVTLFVAGVLTASLTIWKKMG-OMe [NPMB1-V-001] | most effective |  | relatively low NPM1 binding affinity |  |  |  |  | highly effective
5 | Ac-RREEERREEERREEEK-Bala-TVTIFVAGVLTASLTIWKKMG-OH (Ac-RREEERREEERREEEK[βAla]TVTIFVAGVLTASLTIWKKMG-OH; SMILES CC[C@H](C)[C@H](NC(=O)[C@@H](NC(=O)[C@H](CC(C)C)NC(=O)[C@H](CO)NC(=O)[C@H](C)NC(=O)[C@@H](NC(=O)[C@H](CC(C)C)NC(=O)[C@@H](NC(=O)CNC(=O)[C@H](C)NC(=O)[C@@H](NC(=O)[C@H](Cc1ccccc1)NC(=O)[C@@H](NC(=O)[C@@H](NC(=O)[C@@H](NC(=O)[C@@H](NC(=O)CCNC(=O)[C@H](CCCCN)NC(=O)[C@H](CCC(=O)O)NC(=O)[C@H](CCC(=O)O)NC(=O)[C@H](CCC(=O)O)NC(=O)[C@H](CCCNC(=N)N)NC(=O)[C@H](CCCNC(=N)N)NC(=O)[C@H](CCC(=O)O)NC(=O)[C@H](CCC(=O)O)NC(=O)[C@H](CCC(=O)O)NC(=O)[C@H](CCCNC(=N)N)NC(=O)[C@H](CCCNC(=N)N)NC(=O)[C@H](CCC(=O)O)NC(=O)[C@H](CCC(=O)O)NC(=O)[C@H](CCC(=O)O)NC(=O)[C@H](CCCNC(=N)N)NC(=O)[C@H](CCCNC(=N)N)NC(C)=O)[C@@H](C)O)C(C)C)[C@@H](C)O)[C@@H](C)CC)C(C)C)C(C)C)[C@@H](C)O)[C@@H](C)O)C(=O)N[C@@H](Cc1c[nH]c2ccccc12)C(=O)N[C@@H](CCCCN)C(=O)N[C@@H](CCCCN)C(=O)N[C@@H](CCSC)C(=O)NCC(=O)O) [NPMB1-I-011] |  |  | relatively low Kd |  |  |  |  | 
